Measurements from patent publication US9750259B2, “Pyroxasulfone and glutamine synthesis inhibitor compositions for weed control” (Valent U.S.A., priority 2014, dated 2017).

Assays:
Palmer Amaranth [1] = experiment: Field test in Roundup Ready soybeans: control (kill) of emerged Palmer Amaranth, reading 14 DAT; format: in vivo, Amaranthus palmeri; settings: post emergence, all treatments with MSO 1% v/v, glufosinate 593, pyroxasulfone 90, flumiclorac-pentyl 73 g active/ha, % printed in b55 only
Description: (§1) The following field test was conducted. Roundup Ready soybeans (Glycine max) were used in the test as the crop plant. All of the treatments contained MSO concentrate oil at 1% v/v.
(§2) When the test began, the test plot had weeds that were less than […] tall. Treatments were administered at the concentrations as follows. Glufosinate-ammonium was administered at 593 grams/hectare. Pyroxasulfone was administered at 90 grams/hectare throughout the experiment.
(§3) On 14 DAT, readings were taken to determine the survival of Palmer Amaranth. On 21 DAT, readings were taken to determine the residual control of Palmer Amaranth and Horseweed. Survival ratings were taken by counting the number of alive and dead plants at the time of the reading. All data was analyzed using Bartlett's test and with p value of […] for determining significance of the results. The Effect of Glufosinate and Pyroxasulfone on Weeds.”

Palmer Amaranth [2] = experiment: Field test in Roundup Ready soybeans: residual control of Palmer Amaranth, reading 21 DAT; format: in vivo, Amaranthus palmeri; settings: all treatments with MSO 1% v/v, glufosinate 593, pyroxasulfone 90, flumiclorac-pentyl 73 g active/ha, % printed in b55 only
Description: as §1, §2, §3

Horseweed = experiment: Field test in Roundup Ready soybeans: control of Horseweed, reading 21 DAT; format: in vivo, Conyza Canadensis; settings: all treatments with MSO 1% v/v, glufosinate 593, pyroxasulfone 90, flumiclorac-pentyl 73 g active/ha, % printed in b55 only
Description: as §1, §2, §3

SMILES	Palmer amaranth (<2″ tall) control / kill rate (Palmer Amaranth [1]) [%]	Residual control of Palmer amaranth (Palmer Amaranth [2]) [%]	Horseweed (bolted) control / kill rate (Horseweed) [%]
CP(=O)(O)CCC(N)C(=O)O (racemic) [glufosinate, DL-4-[hydroxy](methyl)phosphinoyl]-DL-homoalaninate]	90	93	75
Cn1nc(C(F)(F)F)c(CS(=O)(=O)C2=NOC(C)(C)C2)c1OC(F)F [pyroxasulfone, 3-[[[5-(difluoromethoxy)-1-methyl-3 (trifluoromethyl)-1H-pyrazol-4-yl]methyl]sulfonyl]-4,5-dihydro-5,5-dimethylisoxazole]	5	99	
